Test results as given in US9822124B2, “Bicyclic heteroaromatic carboxamide compounds useful as Pim kinase inhibitors” (Incyte Corporation, priority 2014, dated 2017).

Columns and labels:
Format in all cases: biochemical
[1] = target: Pim-1 (Homo sapiens (Human), UniProt P11309); experiment: Pim-1 kinase assay (AlphaScreen, Biotin-labeled BAD peptide substrate); details: 1 mM ATP; read-out: Pim1 IC50
Procedure: (§1) Pim-1 and Pim-3 kinase assays—20 μL reactions were run in white 384 well polystyrene plates dotted with 0.8 μL compound/DMSO in the assay buffer (50 mM Tris, pH 7.5, 0.01% Tween-20, 5 mM MgCl2, 0.01% BSA, 5 mM DTT), containing 0.05 μM Biotin-labeled BAD peptide substrate (AnaSpec 62269), 1 mM ATP, and […] (Pim-1, Invitrogen PV3503) or […] (Pim-3, Millipore 14-738) enzyme for 1 h at 25° C. Reactions were stopped by addition of 10 μL STOP Buffer (150 mM Tris, pH=7.5, 150 mM NaCl, 75 mM EDTA, 0.01% Tween-20, 0.3% BSA) supplemented with Phospho-Bad (Ser112) Antibody (Cell Signaling 9291) diluted 666-fold, and Streptavidin donor beads (PerkinElmer 6760002) along with Protein-A acceptor beads (PerkinElmer 6760137) at 15 μg/mL each. Supplementation of the STOP buffer with beads and stopping the reactions were done under reduced light. Prior to the stopping reactions STOP buffer with beads was preincubated for 1 h in the dark at room temperature. After stopping the reactions, plates were incubated for 1 h in the dark at room temperature before reading on a PHERAstar FS plate reader (BMG Labtech) under reduced light.

[2] = target: Pim-2 (Homo sapiens (Human), UniProt Q9P1W9); experiment: Pim-2 kinase assay (TR-FRET, Fluorescein-labeled CREBtide peptide substrate); details: 1 mM ATP; read-out: Pim2 IC50
Procedure: Pim-2 kinase assay—20 μL reactions were run in white 384 well polystyrene plates dotted with 0.8 μL compound/DMSO in the assay buffer (50 mM Tris, pH 7.5, 0.01% Tween-20, 5 mM MgCl2, 0.01% BSA, 5 mM DTT), containing 0.05 μM Fluorescein-labeled CREBtide peptide substrate (Invitrogen PV3508), 1 mM ATP, and 1 nM enzyme (Invitrogen PV3649) for 2 h at 25° C. Reactions were stopped by addition of 10 μL TR-FRET Dilution Buffer (Invitrogen PV3574) with 30 mM EDTA and 1.5 nM LanthaScreen Tb-CREB pSer133 antibody (Invitrogen PV3566). After 30 min. incubation at room temperature, plates were read on a PHERAstar FS plate reader (BMG Labtech).

[3] = target: Pim-3 (Homo sapiens (Human), UniProt Q86V86); experiment: Pim-3 kinase assay (AlphaScreen, Biotin-labeled BAD peptide substrate); details: 1 mM ATP; read-out: Pim3 IC50
Procedure: as §1

Sequence of Pim-2 (Q9P1W9 whole entry): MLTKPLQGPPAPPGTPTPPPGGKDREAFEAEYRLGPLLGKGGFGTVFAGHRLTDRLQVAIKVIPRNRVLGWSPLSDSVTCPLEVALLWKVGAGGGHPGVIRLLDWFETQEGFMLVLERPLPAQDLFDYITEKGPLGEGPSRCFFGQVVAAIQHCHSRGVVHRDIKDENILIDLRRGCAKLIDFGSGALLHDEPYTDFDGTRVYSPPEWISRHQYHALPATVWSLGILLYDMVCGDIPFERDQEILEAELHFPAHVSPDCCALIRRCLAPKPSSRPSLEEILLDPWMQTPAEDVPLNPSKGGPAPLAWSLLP
Sequence of Pim-1 (P11309 whole entry): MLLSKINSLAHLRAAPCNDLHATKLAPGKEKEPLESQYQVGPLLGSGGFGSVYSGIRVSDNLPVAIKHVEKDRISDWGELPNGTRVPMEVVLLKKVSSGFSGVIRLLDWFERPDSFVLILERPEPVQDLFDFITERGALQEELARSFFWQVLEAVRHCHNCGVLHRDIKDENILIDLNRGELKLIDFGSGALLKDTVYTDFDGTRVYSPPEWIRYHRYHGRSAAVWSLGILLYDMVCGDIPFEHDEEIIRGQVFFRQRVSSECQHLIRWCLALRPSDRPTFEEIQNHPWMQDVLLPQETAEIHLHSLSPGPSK

| Structure (SMILES) | IC50 [1] [nM] | IC50 [2] [nM] | IC50 [3] [nM] |
| --- | --- | --- | --- |
| C[C@@H]1C[C@H](N)CN(c2ccncc2NC(=O)c2ccc3sc(-c4cnn(C)c4)cc3n2)C1 [Example 60, N-(4-((3S,5R)-3-Amino-5-methylpiperidin-1-yl)pyridin-3-yl)-2-(1-methyl-1H-pyrazol-4-yl)thieno[3,2-b]pyridine-5-carboxamide] | ≤ 10 | ≤ 100 | ≤ 10 |
| CC(C)c1cc2nc(C(=O)Nc3cnccc3N3C[C@H](C)C[C@H](N)C3)ccc2s1 [Example 51, N-(4-((3S,5R)-3-Amino-5-methylpiperidin-1-yl)pyridin-3-yl)-2-isopropylthieno[3,2-b]pyridine-5-carboxamide] | ≤ 10 | ≤ 100 | ≤ 10 |
| C[C@H]1CN(c2ccncc2NC(=O)c2ccc3sc(-c4c(F)cccc4F)cc3n2)C[C@@H](N)[C@@H]1O [Example 40, N-(4-((3R,4R,5S)-3-Amino-4-hydroxy-5-methylpiperidin-1-yl)pyridin-3-yl)-2-(2,6-difluorophenyl)thieno[3,2-b]pyridine-5-carboxamide] | ≤ 10 | 100 to 1000 | ≤ 10 |
| C[C@H]1CN(c2ccncc2NC(=O)c2ccc3ccn(C4CCC4)c3n2)C[C@@H](N)[C@@H]1O [Example 77, N-{4-[(3R,4R,5S)-3-Amino-4-hydroxy-5-methylpiperidin-1-yl]pyridin-3-yl}-1-cyclobutyl-1H-pyrrolo[2,3-b]pyridine-6-carboxamide] | ≤ 10 | 1000 to 10000 | ≤ 10 |
| C[C@H]1CN(c2ccncc2NC(=O)c2ccc3occ(-c4ccccc4F)c3n2)C[C@@H](N)[C@@H]1O [Example 12, N-(4-((3R,4R,5S)-3-Amino-4-hydroxy-5-methylpiperidin-1-yl)pyridin-3-yl)-3-(2-fluorophenyl)furo[3,2-b]pyridine-5-carboxamide] | ≤ 10 | 100 to 1000 | ≤ 10 |
| COc1ccc(-c2cc3nc(C(=O)Nc4cnccc4N4C[C@H](C)C[C@H](N)C4)ccc3s2)cn1 [Example 55, N-(4-((3S,5R)-3-Amino-5-methylpiperidin-1-yl)pyridin-3-yl)-2-(6-methoxypyridin-3-yl)thieno[3,2-b]pyridine-5-carboxamide] | ≤ 10 | 100 to 1000 | ≤ 10 |
| C[C@@H]1C[C@H](N)CN(c2ccncc2NC(=O)c2ccc3occ(-c4ccccc4F)c3n2)C1 [Example 21, N-(4-((3S,5R)-3-Amino-5-methylpiperidin-1-yl)pyridin-3-yl)-3-(2-fluorophenyl)furo[3,2-b]pyridine-5-carboxamide] | ≤ 10 | ≤ 100 | ≤ 10 |
| COc1ccc(-c2cc3nc(C(=O)Nc4cnccc4N4C[C@@H](N)[C@H](O)[C@@H](C)C4)ccc3s2)cn1 [Example 43, N-(4-((3R,4R,5S)-3-Amino-4-hydroxy-5-methylpiperidin-1-yl)pyridin-3-yl)-2-(6-methoxypyridin-3-yl)thieno[3,2-b]pyridine-5-carboxamide] | ≤ 10 | 100 to 1000 | ≤ 10 |
| C[C@@H]1C[C@H](N)CN(c2ccncc2NC(=O)c2ccc3cc(C4CC4)oc3n2)C1 [Example 70, N-{4-[(3S,5R)-3-Amino-5-methylpiperidin-1-yl]pyridin-3-yl}-2-cyclopropylfuro[2,3-b]pyridine-6-carboxamide] | ≤ 10 | ≤ 100 | ≤ 10 |
| C[C@@H]1C[C@H](N)CN(c2ccncc2NC(=O)c2ccc3occ(-c4cncc(C#N)c4)c3n2)C1 [Example 26, N-(4-((3S,5R)-3-Amino-5-methylpiperidin-1-yl)pyridin-3-yl)-3-(5-cyanopyridin-3-yl)furo[3,2-b]pyridine-5-carboxamide] | ≤ 10 | > 2000 | 10 to 50 |
| CCCc1cc2nc(C(=O)Nc3cnccc3N3C[C@H](C)C[C@H](N)C3)ccc2o1 [Example 1, N-(4-((3S,5R)-3-Amino-5-methylpiperidin-1-yl)pyridin-3-yl)-2-propylfuro[3,2-b]pyridine-5-carboxamide] | ≤ 10 | 100 to 1000 | ≤ 10 |
| CCc1cc2nc(C(=O)Nc3cnccc3N3C[C@@H](N)[C@H](O)[C@@H](C)C3)ccc2s1 [Example 85, N-(4-((3R,4R,5S)-3-amino-4-hydroxy-5-methylpiperidin-1-yl)pyridin-3-yl)-2-ethylthieno[3,2-b]pyridine-5-carboxamide] | ≤ 10 | ≤ 100 | ≤ 10 |
| CCc1coc2ccc(C(=O)Nc3cnccc3N3C[C@@H](N)[C@H](O)[C@@H](C)C3)nc12 [Example 15, N-(4-((3R,4R,5S)-3-Amino-4-hydroxy-5-methylpiperidin-1-yl)pyridin-3-yl)-3-ethylfuro[3,2-b]pyridine-5-carboxamide] | ≤ 10 | ≤ 100 | ≤ 10 |
| C[C@H]1CN(c2ccncc2NC(=O)c2ccc3cc([C@@H]4C[C@H]4c4ccccc4)oc3n2)C[C@@H](N)[C@@H]1O [Example 71, N-(4-((3R,4R,5S)-3-Amino-4-hydroxy-5-methylpiperidin-1-yl)pyridin-3-yl)-2-((1R,2R)-2-phenylcyclopropyl)furo[2,3-b]pyridine-6-carboxamide] | ≤ 10 | ≤ 100 | ≤ 10 |
| C[C@@H]1C[C@H](N)CN(c2ccncc2NC(=O)c2ccc3cc([C@@H]4C[C@@H]4C)oc3n2)C1 (racemic) [Example 75, N-{4-[(3S,5R)-3-Amino-5-methylpiperidin-1-yl]pyridin-3-yl}-2-(cis-2-methylcyclopropyl)furo[2,3-b]pyridine-6-carboxamide] | ≤ 10 | ≤ 100 | ≤ 10 |
| C[C@@H]1C[C@H](N)CN(c2ccncc2NC(=O)c2ccc3cc([C@@H]4C[C@H]4C)oc3n2)C1 (racemic) [Example 76, N-{4-[(3S,5R)-3-Amino-5-methylpiperidin-1-yl]pyridin-3-yl}-2-(trans-2-methylcyclopropyl)furo[2,3-b]pyridine-6-carboxamide] | ≤ 10 | ≤ 100 | ≤ 10 |
| COc1cc(F)c(-c2cnn3ccc(C(=O)Nc4cnccc4[C@@H]4C[C@H](C)C[C@H](N)C4)nc23)c(F)c1 [Example 84, N-{4-[(1R,3S,5S)-3-Amino-5-methylcyclohexyl]pyridin-3-yl}-3-(2,6-difluoro-4-methoxyphenyl)pyrazolo[1,5-a]pyrimidine-5-carboxamide] | ≤ 10 | ≤ 100 | ≤ 10 |
| CC(C)c1cc2nc(C(=O)Nc3cnccc3N3C[C@@H](N)[C@H](O)[C@@H](C)C3)ccc2s1 [Example 39, N-(4-((3R,4R,5S)-3-Amino-4-hydroxy-5-methylpiperidin-1-yl)pyridin-3-yl)-2-isopropylthieno[3,2-b]pyridine-5-carboxamide] | ≤ 10 | ≤ 100 | ≤ 10 |
| COc1ccc(F)c(-c2csc3ccc(C(=O)Nc4cnccc4N4C[C@H](C)C[C@H](N)C4)nc23)c1F [Example 64, N-(4-((3S,5R)-3-Amino-5-methylpiperidin-1-yl)pyridin-3-yl)-3-(2,6-difluoro-3-methoxyphenyl)thieno[3,2-b]pyridine-5-carboxamide] | ≤ 10 | 100 to 1000 | 10 to 50 |
| CCc1coc2ccc(C(=O)Nc3cnccc3N3C[C@H](C)C[C@H](N)C3)nc12 [Example 20, N-(4-((3S,5R)-3-Amino-5-methylpiperidin-1-yl)pyridin-3-yl)-3-ethylfuro[3,2-b]pyridine-5-carboxamide] | ≤ 10 | ≤ 100 | ≤ 10 |
| Cc1cc2nc(C(=O)Nc3cnccc3N3C[C@H](C)C[C@H](N)C3)ccc2s1 [Example 61, N-(4-((3S,5R)-3-Amino-5-methylpiperidin-1-yl)pyridin-3-yl)-2-methylthieno[3,2-b]pyridine-5-carboxamide] | ≤ 10 | 100 to 1000 | ≤ 10 |
| C[C@@H]1C[C@H](N)CN(c2ccncc2NC(=O)c2ccc3occ(C4CCOCC4)c3n2)C1 [Example 25, N-(4-((3S,5R)-3-Amino-5-methylpiperidin-1-yl)pyridin-3-yl)-3-(tetrahydro-2H-pyran-4-yl)furo[3,2-b]pyridine-5-carboxamide] | ≤ 10 | 100 to 1000 | ≤ 10 |
| COc1ccc(-c2cc3nc(C(=O)Nc4cnccc4N4C[C@H](C)C[C@H](N)C4)ccc3o2)cn1 [Example 3, N-(4-((3S,5R)-3-Amino-5-methylpiperidin-1-yl)pyridin-3-yl)-2-(6-methoxypyridin-3-yl)furo[3,2-b]pyridine-5-carboxamide] | ≤ 10 | > 2000 | ≤ 10 |
